# Measurements from PubChem BioAssay (NCI).
#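 GI50 marks 50% less growth. Definition used: TGI = concentration required for complete inhibition of growth.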
# Experiments:
# Assay in all cases: inhibition of tumour cell growth, NCI panel, 384-well format
# HCC-2998 colon = system: HCC-2998 colon
# SNB-19 CNS = system: SNB-19 CNS
# SK-MEL-28 melanoma = system: SK-MEL-28 melanoma
# OVCAR-5 ovarian = system: OVCAR-5 ovarian
# SK-OV-3 ovarian = system: SK-OV-3 ovarian
# MDA-MB-435 melanoma = system: MDA-MB-435 melanoma
# HCT-116 colon = system: HCT-116 colon
# SR leukemia = system: SR leukemia
# T-47D breast = system: T-47D breast
# SF-539 CNS = system: SF-539 CNS
# HOP-62 NSCLC = system: HOP-62 NSCLC
# 786-0 renal = system: 786-0 renal
# CAKI-1 renal = system: CAKI-1 renal
# DU-145 prostate = system: DU-145 prostate
# OVCAR-3 ovarian = system: OVCAR-3 ovarian
# IGROV1 ovarian = system: IGROV1 ovarian
# MDA-MB-468 breast = system: MDA-MB-468 breast
# MOLT-4 leukemia = system: MOLT-4 leukemia
# SF-268 CNS = system: SF-268 CNS
# SF-295 CNS = system: SF-295 CNS
# SK-MEL-5 melanoma = system: SK-MEL-5 melanoma
# ACHN renal = system: ACHN renal
# COLO 205 colon = system: COLO 205 colon
# RXF 393 renal = system: RXF 393 renal
# U251 glioblastoma = system: U251 glioblastoma
# SN12C renal = system: SN12C renal
# BT-549 breast = system: BT-549 breast
# LOX IMVI melanoma = system: LOX IMVI melanoma
# NCI-H460 NSCLC = system: NCI-H460 NSCLC
# HOP-92 NSCLC = system: HOP-92 NSCLC
# RPMI-8226 leukemia = system: RPMI-8226 leukemia
# SW-620 colon = system: SW-620 colon
# MALME-3M melanoma = system: MALME-3M melanoma
# NCI/ADR-RES ovarian = system: NCI/ADR-RES ovarian
# UO-31 renal = system: UO-31 renal
# CCRF-CEM leukemia = system: CCRF-CEM leukemia
# NCI-H522 lung = system: NCI-H522 lung
# SK-MEL-2 melanoma = system: SK-MEL-2 melanoma
# HCT-15 colon = system: HCT-15 colon
# OVCAR-8 ovarian = system: OVCAR-8 ovarian
# A498 renal = system: A498 renal
# MDA-MB-231 breast = system: MDA-MB-231 breast
# NCI-H23 lung = system: NCI-H23 lung
# UACC-257 melanoma = system: UACC-257 melanoma
# NCI-H322M lung = system: NCI-H322M lung
# TK-10 renal = system: TK-10 renal
# A549 NSCLC = system: A549 NSCLC
# OVCAR-4 ovarian = system: OVCAR-4 ovarian
# MCF7 breast = system: MCF7 breast
# K-562 leukemia = system: K-562 leukemia
# M14 melanoma = system: M14 melanoma
# HL-60(TB) leukemia = system: HL-60(TB) leukemia
# NCI-H226 lung = system: NCI-H226 lung
compound,measurement,setting,value
C=C1C[C@@H]2CC[C@@]34C[C@H]5O[C@H]6[C@@H](O3)[C@H]3O[C@H](CC[C@@H]3O[C@H]6[C@@H]5O4)CC(=O)C[C@@H]3[C@@H](OC)[C@@H](C[C@H](O)CN)O[C@H]3C[C@H]3O[C@@H](CC[C@@H]1O2)C[C@@H](C)C3=C,GI50,HCC-2998 colon,< 10 nM
same,TGI,HCC-2998 colon,< 10 nM
same,GI50,SNB-19 CNS,< 10 nM
same,TGI,SNB-19 CNS,41.2 nM
same,GI50,SK-MEL-28 melanoma,< 10 nM
same,TGI,SK-MEL-28 melanoma,> 100000 nM
same,GI50,OVCAR-5 ovarian,< 10 nM
same,TGI,OVCAR-5 ovarian,> 100000 nM
same,GI50,SK-OV-3 ovarian,< 10 nM
same,TGI,SK-OV-3 ovarian,84.9 nM
same,GI50,MDA-MB-435 melanoma,< 10 nM
same,TGI,MDA-MB-435 melanoma,< 10 nM
same,GI50,HCT-116 colon,< 10 nM
same,TGI,HCT-116 colon,219 nM
same,GI50,SR leukemia,< 10 nM
same,TGI,SR leukemia,< 10 nM
same,GI50,T-47D breast,< 10 nM
same,TGI,T-47D breast,> 100000 nM
same,GI50,SF-539 CNS,< 10 nM
same,TGI,SF-539 CNS,< 10 nM
same,GI50,HOP-62 NSCLC,< 10 nM
same,TGI,HOP-62 NSCLC,3340 nM
same,GI50,786-0 renal,< 10 nM
same,TGI,786-0 renal,389 nM
same,GI50,CAKI-1 renal,< 10 nM
same,TGI,CAKI-1 renal,> 100000 nM
same,GI50,DU-145 prostate,< 10 nM
same,TGI,DU-145 prostate,< 10 nM
same,GI50,OVCAR-3 ovarian,< 10 nM
same,TGI,OVCAR-3 ovarian,< 10 nM
same,GI50,IGROV1 ovarian,< 10 nM
same,TGI,IGROV1 ovarian,> 100000 nM
same,GI50,MDA-MB-468 breast,< 10 nM
same,TGI,MDA-MB-468 breast,< 10 nM
same,GI50,MOLT-4 leukemia,< 10 nM
same,TGI,MOLT-4 leukemia,< 10 nM
same,GI50,SF-268 CNS,< 10 nM
same,TGI,SF-268 CNS,40 nM
same,GI50,SF-295 CNS,22.9 nM
same,TGI,SF-295 CNS,246 nM
same,GI50,SK-MEL-5 melanoma,< 10 nM
same,TGI,SK-MEL-5 melanoma,< 10 nM
same,GI50,ACHN renal,73.3 nM
same,TGI,ACHN renal,> 100000 nM
same,GI50,COLO 205 colon,< 10 nM
same,TGI,COLO 205 colon,16.6 nM
same,GI50,RXF 393 renal,< 10 nM
same,TGI,RXF 393 renal,< 10 nM
same,GI50,U251 glioblastoma,< 10 nM
same,TGI,U251 glioblastoma,14.1 nM
same,GI50,SN12C renal,< 10 nM
same,TGI,SN12C renal,> 100000 nM
same,GI50,BT-549 breast,< 10 nM
same,TGI,BT-549 breast,< 10 nM
same,GI50,LOX IMVI melanoma,< 10 nM
same,TGI,LOX IMVI melanoma,43.3 nM
same,GI50,NCI-H460 NSCLC,< 10 nM
same,TGI,NCI-H460 NSCLC,< 10 nM
same,GI50,HOP-92 NSCLC,< 10 nM
same,TGI,HOP-92 NSCLC,52.8 nM
same,GI50,RPMI-8226 leukemia,< 10 nM
same,TGI,RPMI-8226 leukemia,< 10 nM
same,GI50,SW-620 colon,< 10 nM
same,TGI,SW-620 colon,> 100000 nM
same,GI50,MALME-3M melanoma,< 10 nM
same,TGI,MALME-3M melanoma,> 100000 nM
same,GI50,NCI/ADR-RES ovarian,1900 nM
same,TGI,NCI/ADR-RES ovarian,5950 nM
same,GI50,UO-31 renal,225 nM
same,TGI,UO-31 renal,> 100000 nM
same,GI50,CCRF-CEM leukemia,< 10 nM
same,TGI,CCRF-CEM leukemia,< 10 nM
same,GI50,NCI-H522 lung,< 10 nM
same,TGI,NCI-H522 lung,< 10 nM
same,GI50,SK-MEL-2 melanoma,< 10 nM
same,TGI,SK-MEL-2 melanoma,< 10 nM
same,GI50,HCT-15 colon,69 nM
same,TGI,HCT-15 colon,3500 nM
same,GI50,OVCAR-8 ovarian,< 10 nM
same,TGI,OVCAR-8 ovarian,27.6 nM
same,GI50,A498 renal,< 10 nM
same,TGI,A498 renal,1100 nM
same,GI50,MDA-MB-231 breast,< 10 nM
same,TGI,MDA-MB-231 breast,165 nM
same,GI50,NCI-H23 lung,< 10 nM
same,TGI,NCI-H23 lung,< 10 nM
same,GI50,UACC-257 melanoma,< 10 nM
same,TGI,UACC-257 melanoma,85300 nM
same,GI50,NCI-H322M lung,< 10 nM
same,TGI,NCI-H322M lung,> 100000 nM
same,GI50,TK-10 renal,52.8 nM
same,TGI,TK-10 renal,> 100000 nM
same,GI50,A549 NSCLC,< 10 nM
same,TGI,A549 NSCLC,186 nM
same,GI50,OVCAR-4 ovarian,< 10 nM
same,TGI,OVCAR-4 ovarian,974 nM
same,GI50,MCF7 breast,< 10 nM
same,TGI,MCF7 breast,596 nM
same,GI50,K-562 leukemia,< 10 nM
same,TGI,K-562 leukemia,12.9 nM
same,GI50,M14 melanoma,< 10 nM
same,TGI,M14 melanoma,2720 nM
same,GI50,HL-60(TB) leukemia,< 10 nM
same,TGI,HL-60(TB) leukemia,< 10 nM
same,GI50,NCI-H226 lung,< 10 nM
same,TGI,NCI-H226 lung,206 nM
